Where a name gives a salt, the structure may show the parent alone.
Molecular target: YKL-40 (Homo sapiens (Human), UniProt P36222)
Test: YKL-40:4 assay, competitive chitin binding site AlphaScreen
Conditions: competition with biotinylated compound 4 (20 nM), YKL-40-histag 2.5 nM

Chain of YKL-40 (P36222 22-383): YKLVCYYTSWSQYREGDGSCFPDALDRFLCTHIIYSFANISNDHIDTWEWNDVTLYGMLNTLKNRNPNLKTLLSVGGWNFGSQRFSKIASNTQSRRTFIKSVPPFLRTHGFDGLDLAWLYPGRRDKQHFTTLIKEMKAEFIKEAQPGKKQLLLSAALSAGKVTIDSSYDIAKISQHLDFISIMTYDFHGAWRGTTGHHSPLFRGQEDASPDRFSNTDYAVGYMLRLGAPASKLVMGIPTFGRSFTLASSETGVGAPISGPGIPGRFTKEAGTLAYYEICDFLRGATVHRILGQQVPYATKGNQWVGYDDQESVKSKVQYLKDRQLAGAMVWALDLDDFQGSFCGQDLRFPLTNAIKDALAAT

Structure (SMILES) | IC50
C[C@H]1CN(C2CCN(c3cc(C(C)(C)O)ccn3)CC2)[C@@H](Cc2ccc(Cl)cc2)CO1 [compound 131, 2-(2-(4-((2S,5S)-5-(4-chlorobenzyl)-2-methylmorpholino)piperidin-1-yl)pyridin-4-yl)propan-2-ol 2,2,2-trifluoroacetate] | > 100 µM
C[C@H]1CN(C2CCN(c3cc(C(N)=O)ccn3)CC2)[C@@H](Cc2ccc(Cl)cc2)CO1 [compound 132, 2-(4-((2S,5S)-5-(4-chlorobenzyl)-2-methylmorpholino)piperidin-1-yl)isonicotinamide 2,2,2-trifluoroacetate] | > 100 µM
Cc1cccc(N2CCC(N3C[C@H](C)OC[C@@H]3Cc3ccc(Cl)cc3)CC2)n1 [compound 135, (2S,5S)-5-(4-chlorobenzyl)-2-methyl-4-(1-(6-methylpyridin-2-yl)piperidin-4-yl)morpholine hydrochloride] | > 100 µM
Cc1ccc(N2CCC(N3C[C@H](C)OC[C@@H]3Cc3ccc(Cl)cc3)CC2)nc1 [compound 136, (2S,5S)-5-(4-chlorobenzyl)-2-methyl-4-(1-(5-methylpyridin-2-yl)piperidin-4-yl)morpholine hydrochloride] | > 100 µM
C[C@H]1CN(C2CCN(c3cc(C(F)(F)F)ncn3)CC2)[C@@H](Cc2ccc(Cl)cc2)CO1 [compound 145, (2S,5S)-5-(4-chlorobenzyl)-2-methyl-4-(1-(6-(trifluoromethyl)pyrimidin-4-yl)piperidin-4-yl)morpholine hydrochloride] | > 100 µM
C[C@H]1CN(C2CCN(c3nccc(C(F)(F)F)n3)CC2)[C@@H](Cc2ccc(Cl)cc2)CO1 [compound 146, (2S,5S)-5-(4-chlorobenzyl)-2-methyl-4-(1-(4-(trifluoromethyl)pyrimidin-2-yl)piperidin-4-yl)morpholine hydrochloride] | 1 to 10 µM
O=C1COC[C@H](Cc2ccc(Cl)cc2)N1C1CCN(c2ccccn2)CC1 [compound 147, (S)-5-(4-chlorobenzyl)-4-(1-(pyridin-2-yl)piperidin-4-yl)morpholin-3-one hydrochloride] | > 100 µM
CN1C[C@H](Cc2ccc(Cl)cc2)N(C2CCN(c3ccccn3)CC2)CC12CCC2 [compound 148, (S)-7-(4-chlorobenzyl)-5-methyl-8-(1-(pyridin-2-yl)piperidin-4-yl)-5,8-diazaspiro[3.5]nonane hydrochloride] | 0.1 to 1 µM
O=C1NCCN(C2CCN(c3ccccn3)CC2)[C@H]1Cc1ccc(Cl)cc1 [compound 149, (S)-3-(4-chlorobenzyl)-4-(1-(pyridin-2-yl)piperidin-4-yl)piperazin-2-one 2,2,2-trifluoroacetate] | > 100 µM
CC(C)C1OC[C@H](Cc2ccc(Cl)cc2)N1C1CCN(c2ccccn2)CC1 (stereo partly drawn) [compound 150, (4S)-4-(4-chlorobenzyl)-2-isopropyl-3-(1-(pyridin-2-yl)piperidin-4-yl)oxazolidine hydrochloride] | > 100 µM
C[C@H]1CN(C2CCN(c3cncc(C(F)(F)F)n3)CC2)[C@@H](Cc2ccc(Cl)cc2)CO1 [compound 153, (2S,5S)-5-(4-chlorobenzyl)-2-methyl-4-(1-(6-(trifluoromethyl)pyrazin-2-yl)piperidin-4-yl)morpholine hydrochloride] | > 100 µM
CNC(=O)[C@H]1CN(C2CCN(c3ccccn3)CC2)[C@@H](Cc2ccc(Cl)cc2)CO1 [compound 154, (2R,5S)-5-(4-chlorobenzyl)-N-methyl-4-(1-(pyridin-2-yl)piperidin-4-yl)morpholine-2-carboxamide hydrochloride] | 0.1 to 1 µM
Clc1ccc(C[C@H]2CN3CCOC[C@H]3CN2C2CCN(c3ccccn3)CC2)cc1 [compound 155, (7S,9aR)-7-(4-chlorobenzyl)-8-(1-(pyridin-2-yl)piperidin-4-yl)octahydropyrazino[2,1-c][1,4]oxazine hydrochloride] | < 0.1 µM
C[C@H]1CN(C2CCN(c3ccnc(Br)c3)CC2)[C@@H](Cc2ccc(Cl)cc2)CO1 [compound 156, (2S,5S)-4-(1-(2-bromopyridin-4-yl)piperidin-4-yl)-5-(4-chlorobenzyl)-2-methylmorpholine hydrochloride] | 10 to 100 µM
C[C@H]1CN(C2CCN(c3cccc4nccn34)CC2)[C@@H](Cc2ccc(Cl)cc2)CO1 [compound 157, (2S,5S)-5-(4-chlorobenzyl)-4-(1-(imidazo[1,2-α]pyridin-5-yl)piperidin-4-yl)-2-methylmorpholine hydrochloride] | 10 to 100 µM
C[C@H]1CN(C2CCN(c3cnc(C(F)(F)F)cn3)CC2)[C@@H](Cc2ccc(Cl)cc2)CO1 [compound 158, (2S,5S)-5-(4-chlorobenzyl)-2-methyl-4-(1-(5-(trifluoromethyl)pyrazin-2-yl)piperidin-4-yl)morpholine hydrochloride] | > 100 µM
C[C@H]1CN(c2ccc(-c3ccccn3)cc2)[C@@H](Cc2ccc(Cl)cc2)CO1 [compound 159, (2S,5S)-5-(4-chlorobenzyl)-2-methyl-4-(4-(pyridin-2-yl)phenyl)morpholine hydrochloride] | 0.1 to 1 µM

Structure (SMILES) | IC50
C[C@H]1CN(C2CCN(c3ncccc3O)CC2)[C@@H](Cc2ccc(Cl)cc2)CO1 [compound 160, 2-(4-((2S,5S)-5-(4-chlorobenzyl)-2-methylmorpholino)piperidin-1-yl)pyridin-3-ol 2,2,2-trifluoroacetate] | > 100 µM
C[C@H]1CN(C2CCN(c3cc(O)ccn3)CC2)[C@@H](Cc2ccc(Cl)cc2)CO1 [compound 161, 2-(4-((2S,5S)-5-(4-chlorobenzyl)-2-methylmorpholino)piperidin-1-yl)pyridin-4-ol 2,2,2-trifluoroacetate] | 10 to 100 µM
COc1cccnc1N1CCC(N2C[C@H](C)OC[C@@H]2Cc2ccc(Cl)cc2)CC1 [compound 162, (2S,5S)-5-(4-chlorobenzyl)-4-(1-(3-methoxypyridin-2-yl)piperidin-4-yl)-2-methylmorpholine 2,2,2-trifluoroacetate] | > 100 µM
CC(C)c1nc(N2CCC(N3C[C@H](C)OC[C@@H]3Cc3ccc(Cl)cc3)CC2)no1 [compound 163, (2S,5S)-5-(4-chlorobenzyl)-4-(1-(5-isopropyl-1,2,4-oxadiazol-3-yl)piperidin-4-yl)-2-methylmorpholine 2,2,2-trifluoroacetate] | > 100 µM
C[C@H]1CN(C2CCN(c3noc(C(F)(F)F)n3)CC2)[C@@H](Cc2ccc(Cl)cc2)CO1 [compound 164, (2S,5S)-5-(4-chlorobenzyl)-2-methyl-4-(1-(5-(trifluoromethyl)-1,2,4-oxadiazol-3-yl)piperidin-4-yl)morpholine 2,2,2-trifluoroacetate] | > 100 µM
C[C@H]1CN(C2CCN(c3noc(=O)[nH]3)CC2)[C@@H](Cc2ccc(Cl)cc2)CO1 [compound 165, 3-(4-((2S,5S)-5-(4-chlorobenzyl)-2-methylmorpholino)piperidin-1-yl)-1,2,4-oxadiazol-5(4H)-one 2,2,2-trifluoroacetate] | > 100 µM
C[C@H]1CN(C2CCN(c3nnn[nH]3)CC2)[C@@H](Cc2ccc(Cl)cc2)CO1 [compound 166, (2S,5S)-4-(1-(1H-tetrazol-5-yl)piperidin-4-yl)-5-(4-chlorobenzyl)-2-methylmorpholine 2,2,2-trifluoroacetate] | > 100 µM
C[C@H]1CN(C2CCN(c3cc(=O)[nH]cn3)CC2)[C@@H](Cc2ccc(Cl)cc2)CO1 [compound 167, 6-(4-((2S,5S)-5-(4-chlorobenzyl)-2-methylmorpholino)piperidin-1-yl)pyrimidin-4(3H)-one 2,2,2-trifluoroacetate] | > 100 µM
C[C@H]1CN(C2CCN(c3ncc(C(F)(F)F)o3)CC2)[C@@H](Cc2ccc(Cl)cc2)CO1 [compound 168, (2S,5S)-5-(4-chlorobenzyl)-2-methyl-4-(1-(5-(trifluoromethyl)oxazol-2-yl)piperidin-4-yl)morpholine 2,2,2-trifluoroacetate] | > 100 µM
C[C@H]1CN(C2CCN(c3ncnc(Cl)n3)CC2)[C@@H](Cc2ccc(Cl)cc2)CO1 [compound 169, (2S,5S)-4-(1-(4-chloro-1,3,5-triazin-2-yl)piperidin-4-yl)-5-(4-chlorobenzyl)-2-methylmorpholine 2,2,2-trifluoroacetate] | > 100 µM
C[C@H]1CN(C2CCN(c3ncnc(O)n3)CC2)[C@@H](Cc2ccc(Cl)cc2)CO1 [compound 170, 4-(4-((2S,5S)-5-(4-chlorobenzyl)-2-methylmorpholino)piperidin-1-yl)-1,3,5-triazin-2-ol 2,2,2-trifluoroacetate] | > 100 µM
COc1ncnc(N2CCC(N3C[C@H](C)OC[C@@H]3Cc3ccc(Cl)cc3)CC2)n1 [compound 171, (2S,5S)-5-(4-chlorobenzyl)-4-(1-(4-methoxy-1,3,5-triazin-2-yl)piperidin-4-yl)-2-methylmorpholine 2,2,2-trifluoroacetate] | > 100 µM
Cc1ncnc(N2CCC(N3C[C@H](C)OC[C@@H]3Cc3ccc(Cl)cc3)CC2)n1 [compound 172, (2S,5S)-5-(4-chlorobenzyl)-2-methyl-4-(1-(4-methyl-1,3,5-triazin-2-yl)piperidin-4-yl)morpholine 2,2,2-trifluoroacetate] | > 100 µM
C[C@H]1CN(C2CCN(c3ncnc(C#N)n3)CC2)[C@@H](Cc2ccc(Cl)cc2)CO1 [compound 173, 4-(4-((2S,5S)-5-(4-chlorobenzyl)-2-methylmorpholino)piperidin-1-yl)-1,3,5-triazine-2-carbonitrile 2,2,2-trifluoroacetate] | > 100 µM
C[C@H]1CN(C2CCN(c3ncnc(N)n3)CC2)[C@@H](Cc2ccc(Cl)cc2)CO1 [compound 174, 4-(4-((2S,5S)-5-(4-chlorobenzyl)-2-methylmorpholino)piperidin-1-yl)-1,3,5-triazin-2-amine 2,2,2-trifluoroacetate] | > 100 µM
C[C@H]1CN(C2CCN(c3ncnc(N(C)C)n3)CC2)[C@@H](Cc2ccc(Cl)cc2)CO1 [compound 175, 4-(4-((2S,5S)-5-(4-chlorobenzyl)-2-methylmorpholino)piperidin-1-yl)-N,N-dimethyl-1,3,5-triazin-2-amine 2,2,2-trifluoroacetate] | > 100 µM
C[C@H]1CN(C2CCN(c3ncns3)CC2)[C@@H](Cc2ccc(Cl)cc2)CO1 [compound 179, (2S,5S)-4-(1-(1,2,4-thiadiazol-5-yl)piperidin-4-yl)-5-(4-chlorobenzyl)-2-methylmorpholine 2,2,2-trifluoroacetate] | > 100 µM

Reference: patent US20230278996A1, “YKL-40 INHIBITORS AND THEIR THERAPEUTIC APPLICATIONS” (Molecure S.A., priority 2022, published 2023)
